Where two headings read alike, the source gives them in different places.

The conditions of data set [1]: early clinical studies; cited from earlier work.
The target in data set [2] is T1, peroxisome proliferator-activated receptor-α (Homo sapiens, UniProt Q07869).
T1 sequence (Q07869 1-468): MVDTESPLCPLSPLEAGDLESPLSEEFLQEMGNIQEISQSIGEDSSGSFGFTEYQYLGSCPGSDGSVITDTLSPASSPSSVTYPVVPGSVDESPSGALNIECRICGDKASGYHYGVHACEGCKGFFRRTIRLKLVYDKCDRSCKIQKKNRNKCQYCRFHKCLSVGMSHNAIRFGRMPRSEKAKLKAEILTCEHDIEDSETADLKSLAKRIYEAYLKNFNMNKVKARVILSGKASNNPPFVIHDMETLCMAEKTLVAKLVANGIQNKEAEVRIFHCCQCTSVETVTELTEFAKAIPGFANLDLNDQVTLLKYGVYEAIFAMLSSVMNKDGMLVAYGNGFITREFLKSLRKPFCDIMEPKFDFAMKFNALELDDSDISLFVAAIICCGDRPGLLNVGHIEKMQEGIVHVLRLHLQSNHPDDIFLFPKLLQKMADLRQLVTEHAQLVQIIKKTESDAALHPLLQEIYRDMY
The settings on record: Alzheimer's Drug Discovery Foundation Cognitive Vitality Report, November 2021; read-out: EC50 for PPARα; cited from earlier work.

The conditions of data set [3]: animal models and humans; cited from earlier work.
Data set [4] concerns the target T2, peroxisome proliferator-activated receptor-γ (Homo sapiens, UniProt P37231).
T2 sequence (P37231 1-505): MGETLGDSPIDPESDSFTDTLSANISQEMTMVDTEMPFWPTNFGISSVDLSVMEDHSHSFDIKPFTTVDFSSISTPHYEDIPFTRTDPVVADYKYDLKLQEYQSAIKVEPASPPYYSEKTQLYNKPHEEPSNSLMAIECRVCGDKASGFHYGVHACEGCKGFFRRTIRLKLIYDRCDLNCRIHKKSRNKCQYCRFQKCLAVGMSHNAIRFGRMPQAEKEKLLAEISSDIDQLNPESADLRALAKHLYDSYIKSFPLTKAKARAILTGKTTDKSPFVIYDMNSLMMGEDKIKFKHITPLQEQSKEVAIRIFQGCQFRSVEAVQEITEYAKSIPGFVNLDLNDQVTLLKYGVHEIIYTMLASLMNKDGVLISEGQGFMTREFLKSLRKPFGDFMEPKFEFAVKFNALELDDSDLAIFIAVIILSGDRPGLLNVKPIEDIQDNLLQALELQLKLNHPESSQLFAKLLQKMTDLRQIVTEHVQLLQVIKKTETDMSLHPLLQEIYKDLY
The settings on record: Alzheimer's Drug Discovery Foundation Cognitive Vitality Report, November 2021; read-out: EC50 for PPARγ; cited from earlier work.

Data set [5] relates to atopic dermatitis-associated pruritus. Put plainly: Oral treatment of pruritic atopic dermatitis. Format: in vivo, human. How it is done: (§1) Subjects are permitted their usual other medications. […] At each visit, the subjects are assessed for their disease symptoms and biomarkers, and assessed for pruritus. The subjects also maintain health diaries, which are reviewed at each visit.
Adult subjects with pruritic atopic dermatitis are treated orally with doses of 5, 10, 25, 50, and 100 mg/day of mavodelpar. Subjects are permitted their usual other medications. The subjects are assessed before the study, and at intervals during the study, such as every 4 weeks during the study and 4 weeks after the last dose of the mavodelpar therapy, for safety and pharmacodynamic evaluations. At each visit, the subjects are assessed for their disease symptoms and biomarkers, and assessed for atopic dermatitis-associated pruritus. The subjects also maintain health diaries, which are reviewed at each visit.

Data set [6] has the same test system. Put plainly: Topical ointment treatment of pruritic atopic dermatitis. Format: in vivo, human. How it is done: as §1
Adult subjects with pruritic atopic dermatitis are treated topically with an ointment containing 1, 2, 5, or 10% of mavodelpar. Subjects are permitted their usual other medications. The subjects are assessed before the study, and at intervals during the study, such as every 4 weeks during the study and 4 weeks after the last dose of the mavodelpar therapy, for safety and pharmacodynamic evaluations. At each visit, the subjects are assessed for their disease symptoms and biomarkers, and assessed for pruritus. The subjects also maintain health diaries, which are reviewed at each visit.

For data set [7] the following is noted: several animal models of type 2 diabetes; cited from earlier work.
The subject of data set [8] is human IL-31. Put plainly: Serum human IL-31 in PXB mice (humanized liver). Format: in vivo, PXB mouse. Conditions: 2 h after last dose, day 0 0.13 pg/mL. The source says: The PXB mouse (PhoenixBio Co., Ltd., Higashi-Hiroshima, Japan) is a chimeric mouse with a humanized liver, produced by transplanting human hepatocytes into the albumin enhancer/promoter-urokinase-type plasminogen activator complementary DNA transgenic/SCID mouse. The mouse has its liver repopulated by human hepatocytes at a ratio of more than 70%, typically 85-90%, as assessed by measuring the ratio of human albumin to mouse albumin in the blood. The transplanted human hepatocytes express a variety of human messenger RNA (mRNA) and proteins, in a similar manner to those of the normal human liver. […] The study was conducted at PhoenixBio. Male PXB mice aged about 25 weeks, kept in single animal cages and fed CRF1 mouse chow supplemented with AS primate chow for vitamin C supplementation (both from Oriental Yeast Co., Ltd., Tokyo, Japan), were randomized into groups (10/group) based on mean values for body weight and blood human albumin concentration. […] Two hours after the last dose, each mouse was anesthetized with isoflurane, at least 400 μL blood was collected by cardiac puncture, and the mouse sacrificed by exsanguination. The blood samples were left to coagulate at room temperature for at least 5 minutes, then centrifuged at 13200×g for 3 minutes at 4° C. to obtain serum, which was analyzed for human IL-31.

Data set [9] has as its system human IL-31. The settings on record: humanized liver murine model; cited from earlier work.
For data set [10] the following is noted: PBC patients, 12 months, cited from earlier work.
Data set [11] concerns IL-31. Conditions: NASH patients; cited from earlier work.
The subject of data set [12] is IL-31. Put plainly: Serum IL-31 in PBC subjects, phase 3 study (ENHANCE, NCT03602560). It counts as in vivo, human. Conditions: before treatment. The source says:
The trial subjects in this phase 3 study were adult, male or female, with a diagnosis of PBC. Exclusion criteria included AST or ALT≥3×ULN, total bilirubin (TBIL)≥2×ULN, autoimmune hepatitis or a history of chronic viral hepatitis, PSC, the current use of fibrates or simvastatin, the use of colchicine, methotrexate, azathioprine, or systemic steroids in the previous two months, the use of an experimental treatment for PBC, and the use of an experimental or unapproved immunosuppressant. […] Serum IL-31 and its correlation with patient-reported pruritus numerical rating scale (NRS, 0-10) were assessed.

The target of data set [13] is T1, peroxisome proliferator-activated receptor-α. The data set is described as follows: PPARα agonism / selectivity. It counts as biochemical.
A short description of data set [14]: Oral bioavailability of seladelpar. The settings on record: in vivo.
A short description of data set [15]: Seladelpar oral studies in primary biliary cholangitis. Format: in vivo, human.
For the next data set, the system named is CD4 T cells. The data set is described as follows: IL-31 production by CD4 T cells under Th2-promoting conditions. Conditions: both donors, both promoters; p<0.0001, Mann-Whitney test. Format: cell-based, human. How it is done:
CD4 T cells were enriched from peripheral blood mononuclear cells collected from two normal healthy donors, using the EasySep™ Human CD4+ T Cell Isolation Kit ([…] Technologies). 100,000 CD4 T cells were seeded in a U-bottom 96-well-plate well, and cultured in Th2-promoting conditions promoted by IL-4 or IL-33. […] On day 5 of culture, the anti-CD3/CD28 beads were diluted by adding 150 μL TCM. From days 5 to 13, the cells were cultured in the presence of the same reagents as for days 1 to 4 plus 50 ng/mL IL-2; and the cell culture medium was renewed every 2-3 days by a change of 50% volume of the medium. On day 13 or day 14, the expanded T cells in an individual well were split to four to six wells of 96-well-plate wells; and 5 ng/mL phorbol myristate acetate and 500 ng/mL ionomycin were added for 3 days to re-activate the T cells. The IL-31 concentration in the culture medium of each well was determined using the V-PLEX Human IL-31 Kit (Meso Scale Diagnostics, LLC; Rockville, MD, USA).

The term EC50 denotes the concentration that produces a half-maximal response. As for `Cc1cc(OC/C=C(/c2ccc(F)cc2)c2ccc(C#CCN3CCOCC3)cc2)ccc1OCC(=O)O` [mavodelpar, (4-{[(2E)-3-(4-fluorophenyl)-3-{4-[3-(morpholin-4-yl)prop-1-yn-1-yl]phenyl}prop-2-en-1-yl]oxy}-2-methylphenoxy)acetic acid], in data set [1], the tolerability entry is listed as “well tolerated”. In addition, the 50% effective concentration (EC50) in data set [2] and in data set [4] was greater than 10 µM in each case. In addition, in data set [3], the high-density lipoprotein cholesterol result is given as “significant increase in high-density lipoprotein cholesterol”. The “low-density lipoprotein cholesterol and triglycerides” value in data set [3] was “lowering of low-density lipoprotein cholesterol and triglycerides”. Also, the atopic dermatitis-associated pruritus result in data set [5] (oral 5, 10, 25, 50 and 100 mg/day mavodelpar) is on record as “improvement in their atopic dermatitis-associated pruritus”; in data set [6] (ointment containing 1, 2, 5 or 10% mavodelpar) it was “improvement in their atopic dermatitis-associated pruritus”. The anti-diabetic effect entry in data set [7] is given as “anti-diabetic effect”.

Take `CC[C@H]1[C@@H](O)[C@@H]2[C@H](CC[C@]3(C)[C@@H]([C@H](C)CCC(=O)O)CC[C@@H]23)[C@@]2(C)CC[C@@H](O)C[C@@H]12` [obeticholic acid]: the “serum human IL-31 concentration” value in the data set with human IL-31 [8] (gavage 10 mL/kg of 1 mg/mL once/day for 19 days) was found to be 3.7 pg/mL. Besides, the “IL-31 mRNA expression in human hepatocytes” value with human IL-31 [9] was “increased”. Also, the “patients reporting severe pruritus” value in data set [10] (OCALIVA 10 mg arm) is on record as 23%; in data set [10] (OCALIVA titration arm) it was 19%.

On to `O=C(O)c1ccnc(N2CC(O)(c3ccc(OCc4c(-c5c(Cl)cccc5Cl)noc4C4CC4)cc3Cl)C2)c1` [cilofexor], for which the “effect on IL-31” value in the data set with IL-31 [11] is reported as “increased IL-31”.

In the case of `CCO[C@H](COc1ccc(C(F)(F)F)cc1)CSc1ccc(OCC(=O)O)c(C)c1` [seladelpar, [4-({(2R)-2-ethoxy-3-[4-(trifluoromethyl)phenoxy]propyl}sulfanyl)-2-methylphenoxy]acetic acid], the “mean serum IL-31, baseline” value with IL-31 [12] (5 mg/day oral as L-lysine dihydrate salt) was found to be 3.8 pg/mL; with IL-31 [12] (10 mg/day oral as L-lysine dihydrate salt), 4.2 pg/mL. Moreover, in the data set with human IL-31 [8] (gavage 10 mL/kg of 10 mg/mL once/day for 19 days), the “serum human IL-31 concentration” value stood at 0.19 pg/mL. For the same molecule, the “specificity for PPARδ compared with PPARα” value in data set [13] is reported as greater than 600 fold. The oral bioavailability result in data set [14] is “high”. In addition, the “efficacy in PBC” value in data set [15] (oral 5, 10, 50 and 200 mg/day) was “effective in the treatment of PBC”. For the same molecule, in data set [15] (oral 5, 10, 50 and 200 mg/day in PBC), the “effect on cholestatic pruritus (exacerbation)” value is on record as “not to exacerbate cholestatic pruritus”. In addition, the “efficacy in cholestatic pruritus associated with PBC” value in [15] (oral 5 and 10 mg/day) is recorded as “effective in the treatment of cholestatic pruritus”. For the same molecule, in the data set with CD4 T cells, the “IL-31 production vs DMSO control” value is on record as “reduced IL-31 production”. Also, the atopic dermatitis-associated pruritus entry is given as “improvement in their atopic dermatitis-associated pruritus” in data set [5] (oral 5, 10, 25 and 50 mg/day seladelpar); “improvement in their atopic dermatitis-associated pruritus” in data set [6] (ointment containing 1, 2, 5 or 10% seladelpar).

The record behind these values is patent US20240252500A1, “Treatment of chronic pruritic dermatoses” (CymaBay Therapeutics, Inc., priority 2023, published 2024).
